Assay results published in ChEMBL document CHEMBL1909046, “DrugMatrix in vitro pharmacology data”.

How the values were obtained:
[1] = biological target: T1, C-X-C chemokine receptor type 1 (Homo sapiens, UniProt P25024); further: in other assays of this panel Not Active means under 50% inhibition at 10 µM
T1 sequence (P25024 whole entry): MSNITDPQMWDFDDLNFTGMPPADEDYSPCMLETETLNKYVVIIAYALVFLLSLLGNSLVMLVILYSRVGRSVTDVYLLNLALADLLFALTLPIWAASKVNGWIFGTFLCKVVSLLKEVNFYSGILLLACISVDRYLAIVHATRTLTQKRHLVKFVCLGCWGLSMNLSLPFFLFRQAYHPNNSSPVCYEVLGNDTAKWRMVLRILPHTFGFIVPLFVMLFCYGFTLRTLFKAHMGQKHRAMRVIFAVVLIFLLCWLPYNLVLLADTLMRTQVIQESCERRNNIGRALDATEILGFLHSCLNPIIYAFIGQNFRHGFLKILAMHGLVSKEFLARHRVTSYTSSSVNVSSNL

[2] = biological target: Prostaglandin G/H synthase 1 (Homo sapiens, UniProt P23219); experiment: biochemical; format: tissue-based, Platelet; settings: platelet;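 further: inhibition of COX-1 enzyme activity, with arachidonic acid supplied as substrate; in other assays of this panel Not Active means under 50% inhibition at 10 µM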
Sequence of Prostaglandin G/H synthase 1 (P23219 whole entry): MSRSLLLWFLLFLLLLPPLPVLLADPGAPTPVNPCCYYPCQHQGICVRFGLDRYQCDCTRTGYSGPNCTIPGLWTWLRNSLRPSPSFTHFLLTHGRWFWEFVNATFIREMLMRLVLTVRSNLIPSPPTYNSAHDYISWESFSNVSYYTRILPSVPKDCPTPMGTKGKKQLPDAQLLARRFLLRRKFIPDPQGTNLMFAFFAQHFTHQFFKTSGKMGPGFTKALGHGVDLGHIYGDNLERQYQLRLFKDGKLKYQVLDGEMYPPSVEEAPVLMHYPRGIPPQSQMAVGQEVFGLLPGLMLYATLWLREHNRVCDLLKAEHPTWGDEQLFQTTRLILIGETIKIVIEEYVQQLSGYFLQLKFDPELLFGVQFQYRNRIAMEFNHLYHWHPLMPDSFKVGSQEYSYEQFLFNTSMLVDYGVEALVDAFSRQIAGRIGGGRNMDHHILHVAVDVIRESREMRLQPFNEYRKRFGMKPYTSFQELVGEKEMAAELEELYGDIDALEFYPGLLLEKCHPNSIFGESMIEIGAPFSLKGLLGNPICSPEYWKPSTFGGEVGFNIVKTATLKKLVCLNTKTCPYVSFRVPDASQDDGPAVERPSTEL

Interstitial collagenase = biological target: T2, Interstitial collagenase (Homo sapiens, UniProt P03956); experiment: biochemical; format: tissue-based, Rheumatoid synovial fibroblasts;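 further: MMP-1 enzyme inhibition assay using a peptide substrate; in other assays of this panel Not Active means under 50% inhibition at 10 µM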
T2 sequence (P03956 whole entry): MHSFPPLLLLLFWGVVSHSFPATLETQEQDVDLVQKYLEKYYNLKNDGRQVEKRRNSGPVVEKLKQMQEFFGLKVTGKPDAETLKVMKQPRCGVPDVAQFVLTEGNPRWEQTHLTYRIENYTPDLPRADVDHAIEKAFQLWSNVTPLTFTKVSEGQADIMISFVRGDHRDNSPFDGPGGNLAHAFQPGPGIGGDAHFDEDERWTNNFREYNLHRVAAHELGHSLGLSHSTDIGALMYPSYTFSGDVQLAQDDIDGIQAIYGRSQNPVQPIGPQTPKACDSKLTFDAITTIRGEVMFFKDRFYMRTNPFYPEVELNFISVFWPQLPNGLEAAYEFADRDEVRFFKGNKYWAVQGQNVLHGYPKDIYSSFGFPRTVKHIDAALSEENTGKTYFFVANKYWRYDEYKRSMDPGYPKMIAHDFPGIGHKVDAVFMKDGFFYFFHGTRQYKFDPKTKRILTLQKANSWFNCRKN

Glycine receptor = Glycine receptor (Rattus norvegicus, UniProt P22771+P24524+P07727+P20781); format: cell membranes, Wistar, Spinal cord, Membrane; further: in other assays of this panel Not Active means under 50% inhibition at 10 µM
Neutrophil elastase = biological target: T3, Neutrophil elastase (Homo sapiens, UniProt P08246); format: tissue-based
T3 sequence (P08246 whole entry): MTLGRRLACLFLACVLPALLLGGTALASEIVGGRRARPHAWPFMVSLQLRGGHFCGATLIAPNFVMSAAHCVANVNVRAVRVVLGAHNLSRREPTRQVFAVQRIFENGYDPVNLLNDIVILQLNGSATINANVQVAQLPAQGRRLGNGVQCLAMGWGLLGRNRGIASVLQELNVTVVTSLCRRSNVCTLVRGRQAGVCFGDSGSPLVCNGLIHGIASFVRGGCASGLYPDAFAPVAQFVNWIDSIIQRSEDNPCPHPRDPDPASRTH

[3] = biological target: T4, Alpha-1B adrenergic receptor (Rattus norvegicus, UniProt P15823); experiment: DRUGMATRIX: Alpha-1B adrenergic receptor radioligand binding (ligand: prazosin); format: cell membranes, Wistar, Liver, Membrane; settings: Not Active = under 50% inhibition at 10 µM
T4 sequence (P15823 whole entry): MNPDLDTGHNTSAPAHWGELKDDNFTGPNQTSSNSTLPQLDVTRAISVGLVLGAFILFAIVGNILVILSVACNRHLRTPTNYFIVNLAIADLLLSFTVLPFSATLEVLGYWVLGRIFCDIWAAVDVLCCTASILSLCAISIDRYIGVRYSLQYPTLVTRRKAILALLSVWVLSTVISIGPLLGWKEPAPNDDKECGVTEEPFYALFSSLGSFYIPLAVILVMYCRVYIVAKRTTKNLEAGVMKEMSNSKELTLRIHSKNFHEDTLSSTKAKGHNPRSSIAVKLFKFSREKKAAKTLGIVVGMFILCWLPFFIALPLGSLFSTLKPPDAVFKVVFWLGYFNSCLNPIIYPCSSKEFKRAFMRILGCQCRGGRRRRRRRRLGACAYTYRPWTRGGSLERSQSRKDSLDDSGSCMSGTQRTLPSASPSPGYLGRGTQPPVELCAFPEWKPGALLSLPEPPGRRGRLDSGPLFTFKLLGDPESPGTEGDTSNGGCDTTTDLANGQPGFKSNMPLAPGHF

Thromboxane-A synthase = biological target: T5, Thromboxane-A synthase (Homo sapiens, UniProt P24557); experiment: biochemical; format: tissue-based, Platelet; settings: platelet
T5 sequence (P24557 whole entry): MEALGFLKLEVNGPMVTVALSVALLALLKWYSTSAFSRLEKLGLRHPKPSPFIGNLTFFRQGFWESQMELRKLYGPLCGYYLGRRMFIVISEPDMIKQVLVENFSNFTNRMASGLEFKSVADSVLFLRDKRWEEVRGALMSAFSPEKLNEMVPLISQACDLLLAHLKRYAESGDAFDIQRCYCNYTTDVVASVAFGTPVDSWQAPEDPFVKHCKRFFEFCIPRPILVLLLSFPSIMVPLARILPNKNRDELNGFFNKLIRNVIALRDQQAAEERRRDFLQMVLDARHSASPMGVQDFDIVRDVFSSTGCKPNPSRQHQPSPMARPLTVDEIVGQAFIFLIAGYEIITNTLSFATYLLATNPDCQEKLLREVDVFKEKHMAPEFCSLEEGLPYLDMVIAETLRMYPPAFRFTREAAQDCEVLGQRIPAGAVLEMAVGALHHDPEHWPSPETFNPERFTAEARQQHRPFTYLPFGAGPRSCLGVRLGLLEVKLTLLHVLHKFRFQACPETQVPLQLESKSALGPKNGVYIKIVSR

Leukotriene C4 synthase = biological target: T6, Leukotriene C4 synthase (Cavia porcellus, UniProt A6XA80); format: tissue-based, Lung
T6 sequence (A6XA80 whole entry): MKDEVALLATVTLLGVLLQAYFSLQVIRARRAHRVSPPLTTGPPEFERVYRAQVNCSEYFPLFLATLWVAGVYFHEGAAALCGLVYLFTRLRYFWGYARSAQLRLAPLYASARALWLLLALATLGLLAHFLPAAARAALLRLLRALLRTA

Cathepsin G = biological target: T7, Cathepsin G (Homo sapiens, UniProt P08311); format: tissue-based; settings: neutrophil
T7 sequence (P08311 whole entry): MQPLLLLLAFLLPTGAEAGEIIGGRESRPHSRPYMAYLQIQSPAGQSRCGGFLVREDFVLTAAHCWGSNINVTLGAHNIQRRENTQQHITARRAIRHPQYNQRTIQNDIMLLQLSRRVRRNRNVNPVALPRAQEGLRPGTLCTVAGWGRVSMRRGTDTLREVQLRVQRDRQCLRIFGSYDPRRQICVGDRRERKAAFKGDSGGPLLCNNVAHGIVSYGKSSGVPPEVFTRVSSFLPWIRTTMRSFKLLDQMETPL

Measured: IC50

C/C=C/C[C@@H](C)[C@@H](O)[C@H]1C(=O)N[C@@H](CC)C(=O)N(C)CC(=O)N(C)[C@@H](CC(C)C)C(=O)N[C@@H](C(C)C)C(=O)N(C)[C@@H](CC(C)C)C(=O)N[C@@H](C)C(=O)N[C@H](C)C(=O)N(C)[C@@H](CC(C)C)C(=O)N(C)[C@@H](CC(C)C)C(=O)N(C)[C@@H](C(C)C)C(=O)N1C [CYCLOSPORINE]
Not Active: all assays above

CN(C)/N=N/c1[nH]cnc1C(N)=O [DACARBAZINE]
Not Active: all assays above

COc1ccc2c(c1)[C@]13CCCC[C@@H]1[C@H](C2)N(C)CC3 [DEXTROMETHORPHAN]
Not Active: all assays above

CC(=O)Nc1c(I)c(NC(C)=O)c(I)c(C(=O)O)c1I [DIATRIZOIC ACID]
Not Active: all assays above

COP(=O)(OC)OC=C(Cl)Cl [DICHLORVOS]
Not Active: all assays above

C[C@H]1O[C@@H](O[C@H]2[C@@H](O)C[C@H](O[C@H]3[C@@H](O)C[C@H](O[C@H]4CC[C@@]5(C)[C@H](CC[C@@H]6[C@@H]5CC[C@]5(C)[C@@H](C7=CC(=O)OC7)CC[C@]65O)C4)O[C@@H]3C)O[C@@H]2C)C[C@H](O)[C@@H]1O [DIGITOXIN]
Not Active: all assays above

CCN1CC(CCN2CCOCC2)C(c2ccccc2)(c2ccccc2)C1=O (configuration not stated) [DOXAPRAM]
Not Active: all assays above

Cn1c(=O)c2c(ncn2CC2OCCO2)n(C)c1=O [DOXOFYLLINE]
Not Active: all assays above
